{
  "source": "BindingDB's records for doi:10.1016/0014-5793(93)80368-5",
  "about": "(University of Heidelberg Zmbh, 1993)",
  "data": [
    {"molecular_target": "5-hydroxytryptamine receptor 5B (Rattus norvegicus, UniProt P35365)", "sequence (P35365 whole entry)": "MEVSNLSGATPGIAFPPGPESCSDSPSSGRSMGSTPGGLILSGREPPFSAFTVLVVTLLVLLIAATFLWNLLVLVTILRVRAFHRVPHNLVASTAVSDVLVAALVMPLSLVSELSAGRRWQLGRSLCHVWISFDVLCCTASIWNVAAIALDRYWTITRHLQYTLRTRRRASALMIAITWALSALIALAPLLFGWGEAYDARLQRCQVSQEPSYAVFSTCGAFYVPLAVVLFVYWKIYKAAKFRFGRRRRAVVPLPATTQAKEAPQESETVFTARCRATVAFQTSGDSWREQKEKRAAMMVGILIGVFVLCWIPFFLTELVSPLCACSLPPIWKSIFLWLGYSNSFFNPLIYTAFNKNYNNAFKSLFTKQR", "units": {"Ki": "nM"}, "values": [
      {"smiles": "CCCN(CCC)C1CCc2cccc(O)c2C1", "note": "(stereo not given)", "Ki": 46},
      {"smiles": "CN1CC(C(=O)N[C@]2(C)O[C@@]3(O)C4CCCN4C(=O)[C@H](Cc4ccccc4)N3C2=O)CC2c3cccc4[nH]cc(c34)CC21", "note": "(stereo partly drawn) [7-Methyl-4,6,6a,7,8,9,10,10a-octahydro-indolo[4,3-fg]quinoline-9-carboxylic acid ((2R,5S,10bS)-5-benzyl-10b-hydroxy-2-methyl-3,6-dioxo-octahydro-oxazolo[3,2-a]pyrrolo[2,1-c]pyrazin-2-yl)-amide]", "Ki": 31},
      {"smiles": "CC[C@@H](CO)NC(=O)[C@@H]1C=C2c3cccc4c3c(cn4C)C[C@H]2N(C)C1", "Ki": 40.7},
      {"smiles": "CNS(=O)(=O)Cc1ccc2[nH]cc(CCN(C)C)c2c1", "note": "[Sumax]", "Ki": 807},
      {"smiles": "CN1CCC(=C2c3ccccc3C=Cc3ccccc32)CC1", "note": "[5-(1-methylpiperidylidene-4)-5H-dibenzo(a,d)cyclopheptene]", "Ki": 117},
      {"smiles": "CC(C)NCC(O)COc1cccc2[nH]ccc12", "note": "(stereo not given) [LB-46]", "Ki": 1000},
      {"smiles": "NCCc1c[nH]c2ccc(OCC(=O)NCC(=O)N[C@@H](Cc3ccc(O)cc3)C(N)=O)cc12", "Ki": 582},
      {"smiles": "O=C(c1ccc(F)cc1)C1CCN(CCn2c(=O)[nH]c3ccccc3c2=O)CC1", "note": "[3-(2-{4-[(4-fluorophenyl)carbonyl]piperidin-1-yl}ethyl)-1,2,3,4-tetrahydroquinazoline-2,4-dione]", "Ki": 1000},
      {"smiles": "CCN(CC)C(=O)[C@@H]1C=C2c3cccc4[nH]cc(c34)C[C@H]2N(C)C1", "note": "[(4R,7R)-N,N-diethyl-6-methyl-6,11-diazatetracyclo[7.6.1.0^{2,7}.0^{12,16}]hexadeca-1(16),2,9,12,14-pentaene-4-carboxamide]", "Ki": 3.2},
      {"smiles": "O=C(CCCN1CCC2(CC1)C(=O)NCN2c1ccccc1)c1ccc(F)cc1", "note": "[8-[4-(4-fluorophenyl)-4-oxidanylidene-butyl]-1-phenyl-1,3,8-triazaspiro[4.5]decan-4-one]", "Ki": 1000}
    ]}
  ]
}
